Reference: patent publication US20230365559A1, “NOVEL AMINOPYRIDINES AND THEIR USE IN TREATING CANCER” (priority 2020, published 2023)
Several values for one entry are separate records, joined by “and”; a condition that tells them apart may be missing. Equal values may be shown once.

Legend:
[1] = molecular target: human DNA-PK (Homo sapiens, UniProt P78527); assay: Inhibition of DNA-PKcs kinase activity, HotSpot assay (Reaction Biology), [γ-33P]-ATP phosphorylation of peptide substrate; format: biochemical; settings: 10 μM ATP, 10 μg/ml DNA; mean of two replicates; Table 12; read-out: Inhibition of kinase activity (as IC50) DNA-PK (converted)
[2] = molecular target: human PI3Kα (p110α/p85α) (Homo sapiens, UniProt P42336); assay: Inhibition of PI3Kα kinase activity, ADP-Glo Assay (Reaction Biology); format: biochemical; settings: 10 μM ATP; mean of two replicates; Table 12; read-out: Inhibition of kinase activity (as IC50) PICK
[3] = molecular target: human mTOR (Homo sapiens, UniProt P42345); assay: Inhibition of mTOR kinase activity, HotSpot assay, phosphorylation of 4EPB1; settings: Inhibition of kinase activity (as IC50) mTOR (nM), 10 μM ATP; mean of two replicates; Table 12
[4] = tested on: UT-SCC-54C cells; assay: Radiosensitisation of UT-SCC-54C HNSCC cells, regrowth (sulforhodamine B) assay, oxic (Table 16); format: cell-based, human; settings: for IC50: Homo sapiens, read-out: IC50; for S50: compound in combination with 3 Gy of radiation, 50% inhibition of regrowth fraction, UT-SCC-54C; for S50 / radiosensitisation / differential growth inhibition of UT-SCC-54C cells: oxic; for radiosensitisation / differential growth inhibition of UT-SCC-54C cells: 0 or 3 Gy, regrowth assay
[5] = tested on: UT-SCC-54C cells; assay: Radiosensitisation of UT-SCC-54C HNSCC cells, clonogenic survival, oxic and anoxic (Table 18); format: cell-based, human

human PI3Kα (p110α/p85α), sequence (P42336 whole entry): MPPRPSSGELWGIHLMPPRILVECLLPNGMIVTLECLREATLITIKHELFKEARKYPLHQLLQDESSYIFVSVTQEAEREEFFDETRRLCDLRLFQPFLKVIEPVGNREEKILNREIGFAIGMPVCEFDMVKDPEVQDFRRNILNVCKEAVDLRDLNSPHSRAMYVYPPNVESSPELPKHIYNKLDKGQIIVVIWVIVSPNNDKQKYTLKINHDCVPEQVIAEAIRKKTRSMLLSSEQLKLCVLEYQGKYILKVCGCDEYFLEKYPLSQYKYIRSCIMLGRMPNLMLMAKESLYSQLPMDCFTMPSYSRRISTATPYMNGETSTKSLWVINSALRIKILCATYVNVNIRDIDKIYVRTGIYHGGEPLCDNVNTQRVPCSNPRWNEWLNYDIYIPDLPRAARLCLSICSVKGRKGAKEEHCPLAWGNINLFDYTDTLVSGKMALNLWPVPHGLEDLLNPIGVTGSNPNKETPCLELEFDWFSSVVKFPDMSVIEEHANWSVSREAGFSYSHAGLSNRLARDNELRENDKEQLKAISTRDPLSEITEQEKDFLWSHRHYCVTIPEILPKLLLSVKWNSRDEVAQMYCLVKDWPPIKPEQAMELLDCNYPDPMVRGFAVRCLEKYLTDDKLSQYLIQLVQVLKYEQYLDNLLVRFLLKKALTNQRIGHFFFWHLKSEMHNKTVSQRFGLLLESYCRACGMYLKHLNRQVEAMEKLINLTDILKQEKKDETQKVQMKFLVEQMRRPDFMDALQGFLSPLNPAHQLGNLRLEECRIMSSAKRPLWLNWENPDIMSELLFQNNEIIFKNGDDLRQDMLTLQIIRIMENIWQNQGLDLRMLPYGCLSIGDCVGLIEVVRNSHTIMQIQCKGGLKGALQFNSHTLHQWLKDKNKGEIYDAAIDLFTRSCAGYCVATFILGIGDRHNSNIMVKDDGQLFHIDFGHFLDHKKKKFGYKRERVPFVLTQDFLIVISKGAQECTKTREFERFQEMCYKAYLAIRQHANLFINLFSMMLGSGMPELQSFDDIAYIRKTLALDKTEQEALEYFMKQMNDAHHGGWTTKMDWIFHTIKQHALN
human PI3Kα (p110α/p85α), sequence (P27986 whole entry partner): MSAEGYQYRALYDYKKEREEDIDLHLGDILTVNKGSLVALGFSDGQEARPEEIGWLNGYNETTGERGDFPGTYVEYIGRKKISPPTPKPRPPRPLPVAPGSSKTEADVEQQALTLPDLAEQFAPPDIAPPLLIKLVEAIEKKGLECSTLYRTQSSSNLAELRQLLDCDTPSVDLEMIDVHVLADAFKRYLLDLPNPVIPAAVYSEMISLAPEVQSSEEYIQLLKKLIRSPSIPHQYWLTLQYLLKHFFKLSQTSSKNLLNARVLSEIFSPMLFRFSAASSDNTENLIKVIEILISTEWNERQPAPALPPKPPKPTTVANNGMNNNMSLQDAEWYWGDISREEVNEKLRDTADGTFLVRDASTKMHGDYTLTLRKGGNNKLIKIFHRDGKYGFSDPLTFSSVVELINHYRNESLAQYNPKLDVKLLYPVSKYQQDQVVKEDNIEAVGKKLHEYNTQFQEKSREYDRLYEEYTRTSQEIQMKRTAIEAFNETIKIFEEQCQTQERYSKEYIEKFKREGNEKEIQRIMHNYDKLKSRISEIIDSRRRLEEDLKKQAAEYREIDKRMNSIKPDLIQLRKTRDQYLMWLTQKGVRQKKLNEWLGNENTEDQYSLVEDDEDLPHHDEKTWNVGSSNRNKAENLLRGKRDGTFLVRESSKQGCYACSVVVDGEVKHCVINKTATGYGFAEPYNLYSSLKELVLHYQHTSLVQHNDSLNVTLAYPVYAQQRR

| Compound | IC50 [1] [nM] | IC50 [2] | IC50 [3] | IC50 [4] [nM] | S50 [4] [µM] | further results |
| --- | --- | --- | --- | --- | --- | --- |
| COCCn1c(=O)n(C)c2cnc(Nc3ccc(Cl)cc3C)cc21 [Compound 105, 6-((4-Chloro-2-methylphenyl)amino)-1-(2-methoxyethyl)-3-methyl-1,3-dihydro-2H-imidazo[4,5-c]pyridin-2-one] | 12.1 | 3260 nM | 71400 nM | – | – | – |
| Cc1cc(Cl)ccc1Nc1cc2c(cn1)n(C)c(=O)n2C1CCOCC1 [Compound 122, 6-((4-Chloro-2-methylphenyl)amino)-3-methyl-1-(tetrahydro-2H-pyran-4-yl)-1,3-dihydro-2H-imidazo[4,5-c]pyridin-2-one] | – | 2530 nM and 5530 nM | 46600 nM and 56100 nM | > 10000 | 0.38 | – |
| Cc1ccc(S(C)(=O)=O)cc1Nc1cc2c(cn1)n(C)c(=O)n2C1CCOCC1 [Compound 123, 3-Methyl-6-((2-methyl-5-(methylsulfonyl)phenyl)amino)-1-(tetrahydro-2H-pyran-4-yl)-1,3-dihydro-2H-imidazo[4,5-c]pyridin-2-one] | 0.13 | 678 nM | > 100000 nM | > 10000 | 0.74 | – |
| Cc1cc(OCc2ccccc2)ccc1Nc1cc2c(cn1)n(C)c(=O)n2C1CCOCC1 [Compound 124, 6-((4-(Benzyloxy)-2-methylphenyl)amino)-3-methyl-1-(tetrahydro-2H-pyran-4-yl)-1,3-dihydro-2H-imidazo[4,5-c]pyridin-2-one] | 422 | 5450 nM | – | – | – | – |
| Cc1nc2ccc(Nc3cc4c(cn3)n(C)c(=O)n4C3CCOCC3)cc2o1 [Compound 128, 3-Methyl-6-((2-methylbenzo[d]oxazol-6-yl)amino)-1-(tetrahydro-2H-pyran-4-yl)-1,3-dihydro-2H-imidazo[4,5-c]pyridin-2-one] | 1420 | > 10000 nM | > 100000 nM | – | – | – |
| Cc1cc2c(cc1Nc1cc3c(cn1)n(C)c(=O)n3C1CCOCC1)OCO2 [Compound 130, 3-Methyl-6-((6-methylbenzo[d][1,3]dioxol-5-yl)amino)-1-(tetrahydro-2H-pyran-4-yl)-1,3-dihydro-2H-imidazo[4,5-c]pyridin-2-one] | 3.05 | 2530 nM | 10800 nM | > 10000 | 0.50 | – |
| Cc1nc2cc(Nc3cc4c(cn3)n(C)c(=O)n4C3CCOCC3)c(C)cc2o1 [Compound 131, 6-((2,6-Dimethylbenzo[d]oxazol-5-yl)amino)-3-methyl-1-(tetrahydro-2H-pyran-4-yl)-1,3-dihydro-2H-imidazo[4,5-c]pyridin-2-one] | 47.7 | 11000 nM | 13400 nM | > 10000 | 4.8 | – |
| Cc1cc(Cl)ccc1N(C(=O)OCc1ccccc1)c1cc2c(cn1)n(C)c(=O)n2C1CCOCC1 [Compound 134, Benzyl (4-Chloro-2-methylphenyl)(3-methyl-2-oxo-1-(tetrahydro-2H-pyran-4-yl)-2,3-dihydro-1H-imidazo[4,5-c]pyridin-6-yl)carbamate] | > 10000 | > 10000 nM | – | – | – | – |
| Cc1cc2ncc(C(=O)O)n2cc1Nc1cc2c(cn1)n(C)c(=O)n2C1CCOCC1 [Compound 136, 7-Methyl-6-((3-methyl-2-oxo-1-(tetrahydro-2H-pyran-4-yl)-2,3-dihydro-1H-imidazo[4,5-c]pyridin-6-yl)amino)imidazo[1,2-a]pyridine-3-carboxylic acid] | 3.6 | 151 nM | 19600 nM | – | – | – |
| Cc1cc(Cl)ccc1Nc1cc2c(cn1)n(C)c(=O)n2CCC1CCOCC1 [Compound 147, 6-((4-Chloro-2-methylphenyl)amino)-3-methyl-1-(2-(tetrahydro-2H-pyran-4-yl)ethyl)-1,3-dihydro-2H-imidazo[4,5-c]pyridin-2-one] | 11 | 490 nM | 7900 nM | > 10000 | 0.97 | – |
| COc1ccc(-n2c(=O)n(C)c3cnc(Nc4ccc(Cl)cc4C)cc32)cc1 [Compound 196, 6-((4-Chloro-2-methylphenyl)amino)-1-(4-methoxyphenyl)-3-methyl-1,3-dihydro-2H-imidazo[4,5-c]pyridin-2-one] | 0.27 | 237 nM | – | > 10000 | 0.68 | – |
| COc1ccc(-n2c(=O)n(C)c3cnc(Nc4cc(S(C)(=O)=O)ccc4C)cc32)cc1 [Compound 197, 1-(4-Methoxyphenyl)-3-methyl-6-((2-methyl-5-(methylsulfonyl)phenyl)amino)-1,3-dihydro-2H-imidazo[4,5-c]pyridin-2-one] | 0.09 | 33 nM | 33400 nM | – | – | – |
| COc1ccc(-n2c(=O)n(C)c3cnc(Nc4ccc(S(C)(=O)=O)cc4C)cc32)cc1 [Compound 198, 1-(4-Methoxyphenyl)-3-methyl-6-((2-methyl-4-(methylsulfonyl)phenyl)amino)-1,3-dihydro-2H-imidazo[4,5-c]pyridin-2-one] | 23 | 1800 nM | – | > 10000 | 0.17 | – |
| COc1ccc(-n2c(=O)n(C)c3cnc(Nc4ccc(OCc5ccccc5)cc4C)cc32)cc1 [Compound 199, 6-((4-(Benzyloxy)-2-methylphenyl)amino)-1-(4-methoxyphenyl)-3-methyl-1,3-dihydro-2H-imidazo[4,5-c]pyridin-2-one] | 55 | – | – | – | – | – |
| Cc1cc(Cl)ccc1Nc1cc2c(cn1)n(C)c(=O)n2-c1ccc(C(C)(C)C#N)cc1 [Compound 212, 2-(4-(6-((4-Chloro-2-methylphenyl)amino)-3-methyl-2-oxo-2,3-dihydro-1H-imidazo[4,5-c]pyridin-1-yl)phenyl)-2-methylpropanenitrile] | < 0.51 | 803 nM | – | > 10000 | 0.51 | – |
| Cn1c(=O)n(-c2ccc(C(C)(C)C#N)cc2)c2cc(Nc3ccc4nccnc4c3)ncc21 [Compound 214, 2-Methyl-2-(4-(3-methyl-2-oxo-6-(quinoxalin-6-ylamino)-2,3-dihydro-1H-imidazo[4,5-c]pyridin-1-yl)phenyl)propanenitrile] | 43 | – | – | – | – | – |
| Cc1nc(Cl)ccc1Nc1cc2c(cn1)n(C)c(=O)n2C1CCOCC1 [Compound 219, 6-((6-Chloro-2-methylpyridin-3-yl)amino)-3-methyl-1-(tetrahydro-2H-pyran-4-yl)-1,3-dihydro-2H-imidazo[4,5-c]pyridin-2-one] | 270 | 20800 nM | > 100000 nM | – | – | – |
| COc1ccc(Nc2cc3c(cn2)n(C)c(=O)n3C2CCOCC2)c(C)n1 [Compound 221, 6-((6-Methoxy-2-methylpyridin-3-yl)amino)-3-methyl-1-(tetrahydro-2H-pyran-4-yl)-1,3-dihydro-2H-imidazo[4,5-c]pyridin-2-one] | 441 | 9360 nM | > 100000 nM | – | – | – |
| COc1ccc(-c2ccc(Nc3cc4c(cn3)n(C)c(=O)n4C3CCOCC3)cc2)cn1 [Compound 223, 6-((4-(6-Methoxypyridin-3-yl)phenyl)amino)-3-methyl-1-(tetrahydro-2H-pyran-4-yl)-1,3-dihydro-2H-imidazo[4,5-c]pyridin-2-one] | 3940 | 11800 nM | 41200 nM | – | – | – |
| COc1ccc(-n2c(=O)n(C)c3cnc(Nc4ccc(OCc5cnc([N+](=O)[O-])n5C)cc4C)cc32)cc1 [Compound 246, 1-(4-Methoxyphenyl)-3-methyl-6-((2-methyl-4-((1-methyl-2-nitro-1H-imidazol-5-yl)methoxy)phenyl)amino)-1,3-dihydro-2H-imidazo[4,5-c]pyridin-2-one] | 116 | 1280 nM | – | > 10000 | 6.08 | radiosensitisation / differential growth inhibition of UT-SCC-54C cells [4]: did not display any differential growth inhibition |
| COc1ccc(N(C(=O)OC(C)c2cnc([N+](=O)[O-])n2C)c2cc3c(cn2)n(C)c(=O)n3C2CCOCC2)c(C)c1 (centres unmarked) [Compound 250, 1-(1-Methyl-2-nitro-1H-imidazol-5-yl)ethyl (4-methoxy-2-methylphenyl)(3-methyl-2-oxo-1-(tetrahydro-2H-pyran-4-yl)-2,3-dihydro-1H-imidazo[4,5-c]pyridin-6-yl)carbamate] | – | – | – | > 10000 | >10 | radiosensitisation / differential growth inhibition of UT-SCC-54C cells [4]: did not display any differential growth inhibition; D1 (radiation dose for 1% surviving fraction) ([5]; 0% O2, compound conc 1 μM): 10.83 Gy; D10 (radiation dose for 10% surviving fraction) ([5]; 0% O2, compound conc 1 μM): 5.78 Gy; SER1 (sensitiser enhancement ratio at 1% surviving fraction) ([5]; 0% O2, compound conc 1 μM): 1.87; SER10 (sensitiser enhancement ratio at 10% surviving fraction) ([5]; 0% O2, compound conc 1 μM): 2.09; Plating efficiency drug/no drug ([5]; 0% O2, compound conc 1 μM, no radiation): 0.98; sensitisation of UT-SCC-54C cells selectively under anoxia ([5]; oxic vs anoxic, clonogenic survival, FIGS. 9 and 10): provide sensitisation of UT-SCC-54C cells selectively under anoxia |
| COc1ccc(Nc2cc3c(cn2)n(C)c(=O)n3C2CCN(C(=O)OCc3cnc([N+](=O)[O-])n3C)CC2)c(C)c1 [Compound 252, (1-Methyl-2-nitro-1H-imidazol-5-yl)methyl 4-(6-((4-methoxy-2-methylphenyl)amino)-3-methyl-2-oxo-2,3-dihydro-1H-imidazo[4,5-c]pyridin-1-yl)piperidine-1-carboxylate] | 104 | 740 nM | 15600 nM | – | – | – |
| COc1ccc(Nc2cc3c(cn2)n(C)c(=O)n3C2CCC(NC(=O)OCc3cnc([N+](=O)[O-])n3C)CC2)c(C)c1 (centres unmarked) [Compound 253, (1-Methyl-2-nitro-1H-imidazol-5-yl)methyl (4-(6-((4-methoxy-2-methylphenyl)amino)-3-methyl-2-oxo-2,3-dihydro-1H-imidazo[4,5-c]pyridin-1-yl)cyclohexyl)carbamate] | 58 | 296 nM | 11400 nM | – | – | – |
